From patent US20230390315A1, “COMPOSITIONS AND METHODS FOR TREATING ISCHEMIC CONDITIONS” (The Regents of the University of California, priority 2020, published 2023)

Legend:
[1] = test system: BCEC confluent monolayers; assay: BCEC scratch assay; type: cell-based, bovine
Experimental: BCECs (passage 6-10) and HUVEC (passage 6-8) were used in this assay. Cells were grown until about 80% confluency in 6-well plates, washed twice with PBS and then starved in serum-free DMEM (low Glucose, Hyclone) for 5 hrs before making a “scratch” using 1 ml tip. Cell monolayers were briefly washed once with serum-free media, followed by various treatments in media containing 1% FBS. 48 hrs later, the assay was stopped by adding 2 ml 4% paraformaldehyde. 20 min later, fixed cells were stained with 1 ml Crystal Violet (Sigma). Plates were washed gently under the running tap water and air-dried before taking pictures. Images were acquired by ZEISS Discovery […] microscopy equipped with […] camera. Quantification of wound closure was done using AxioVision LE Rel.4.4 software. Six images were taken for each sample and six measurements (in pixel) were made on each image using AxioVision LE Rel.4.4 software.

[2] = test system: JNK/c-Jun; assay: Western blot of JNK pathway activation in BCECs; type: cell-based, bovine; settings: media without growth factors
Experimental: Cells were allowed to reach 80% confluency in 12-well plates. […] At various time points, plates were taken out of the incubator and kept on ice. Cell monolayers were first washed once with ice-cold PBS before lysis with 250 μl of Pierce RIPA buffer (ThermoFisher Scientific, Rockford, IL) or use 50 mM Tris-HCl (pH 7.6), 150 mM NaCl, 10% Glycerol, 1% NP-40 containing protease/Phosphatase inhibitor cocktail (100×) (Cell signaling, #5872). Lysates were collected and mixed with 4×Bolt LDS Sample Buffer (Novex, Carlsbad, CA) in the presence of Halt protease inhibitors and phosphatase inhibitor cocktail (ThermoFisher scientific, #NP0007). The samples were subjected to SDS-PAGE (Bolt 4-12% Bis-Tris Plus, Invitrogen) using Bolt MES SDS running buffer or NuPAGE 3-8% Tris-Acetate gel using Tris-Acetate SDS running buffer (Novex). HUVECs (passage 6-8) were plated in EBM-2 basal medium (Lonza) with 0.2% FBS. […] Equal amounts of protein lysates were analyzed by SDS-PAGE and blotted with the indicated antibodies. Proteins were transferred using Tris-Glycine buffer with 20% Methanol (Proteonomics grade) (Apex BioResearch Products). Membranes were first incubated with 5% milk in TBST, pH 7.6 (TEKnova, Hollister, CA), followed by blotting with primary and secondary antibodies. ECL anti-rabbit IgG, horseradish peroxidase linked whole antibody from donkey or sheep anti-mouse were obtained from GE Healthcare (UK limited). SuperSignal West Dura Extended Duration substrate was from ThermoFisher Scientific. In some cases, the same PVDF membranes were stripped by 8-min incubation in the Restore Plus Western Blot Stripping Buffer (ThermoFisher Scientific) to show total specific protein expression, followed by second stripping for β-actin expression.

[3] = test system: dermal microvascular endothelial cells (hDMVECs); assay: hDMVEC proliferation assay; type: cell-based, human
Experimental: Proliferation assays with BCECs and BRECs were performed. Log-phase growing BCECs or BRECs (passage <10) were trypsinized, re-suspended and seeded in 96-well plates (no coating) in low-glucose DMEM supplemented with 10% bovine calf serum, 2 mM glutamine, and antibiotics (growth medium), at a density of 1200-1500 cells per well in 200 μl volume. All reagents were added at the indicated final concentrations. After 3-6 days, cells were incubated with AlamarBlue for 4 hrs. Fluorescence was measured at 530 nm excitation wavelength and 590 nm emission wavelength. The experiments were repeated at least three times. To create a hypoxic condition, cells were placed in a hypoxia incubator with a mixture of gas consisting of 1% 02, 5% CO2 and 94% Nz. On each 96-well plate, untreated and VEGF-treated (10/ng/ml) wells were included to monitor plate-to-plate variations. 20% methanol or 0.05% DMSO served as negative controls. 0.05% DMSO served as negative controls when Cas was tested in these cells. Human RMVECs and human adult DMVECs were split into Gelatin-coated 96 wells (2000 cells per well) in low glucose DMEM containing 10% FBS. 1200 cells/well was set up for proliferation assay in low glucose media containing FBS. Data was collected at day 4 or 5. HUVEC (p7-10) were grown on gelatin-coated plate until it reached 70-80% confluency.
Proliferation assays with fibroblasts were done in low-glucose DMEM containing 1% FBS, with or without 10 ng/ml bFGF, or 100 ng/ml human EGF and the assay was ended at day 3. ARPE-19 cells were gently lifted with 0.025% trypsin and plated in RtEGM media (Clonetics) containing 2% FBS, L-glutamine, human bFGF and GA-1000. Once cells were attached to plates, serum-free RtEGM media was used to maintain the cultures. For proliferation assays, 1500 human RPE cells were plated into 96-well plates in low-glucose DMEM containing 1% FBS. […] Four days later, tumor cell growth was measured by the MTS assay (Promega, Madison, WI), a colorimetric assay that measures metabolic activity of viable cells. […]

[4] = test system: α-glucosidase; assay: α-glucosidase activity assay; type: biochemical, Saccharomyces cerevisiae; settings: up to 2 mM
Experimental: a-mannosidase activity was measured using substrate p-nitrophenyl α-mannopyranoside (1 mM). Enzyme from Jack Bean ([…]) (final concentration of 0.077 U) was incubated at 37° C. in a final volume of 50 μl of 50 mM potassium phosphate buffer, pH 7.5. α-glucosidase was assayed with substrate p-nitrophenyl α-glucoside (7 mM). Enzyme from Saccharomyces cerevisiae-type 1 (Sigma, G5003) (final concentration of 0.1 U) was incubated at 37° C. in a final volume of 50 μl of PBS, pH 7.5. β-Glucosidase was assayed with substrate 4-nitrophenyl β-D-glucopyranoside (Roche). Enzyme from almond (Sigma, G0395) (final concentration of 0.002 U) was incubated at 37° C. in a final volume of 50 μl of PBS, pH 7.5 containing 1% SDS. The incubation was stopped by addition of an equal volume of acid-based stop solution (R&D systems, 895032). Enzymatic activity was measured at 405 nm. α-glucosidase from Saccharomyces cerevisiae type I ([…]) with p-nitrophenyl α-D-glucopyranoside (Sigma, N1377) as the substrate.

SMILES: O=C1N[C@@H]2[C@@H](O)[C@@H](O)[C@H](O)[C@@H](CO)N2C1=O [Kif, Kifunensine, reference compound]
- activity of glycosylation inhibitors in BCEC scratch assay ([1]; over 48 hours relative to control): significant activity
- activation of JNK pathway (JNK and downstream c-Jun) [2]: able to activate the JNK pathway

SMILES: N[C@H](C=O)[C@@H](O)[C@H](O)[C@H](O)CO [ManN, 2-Amino-2-deoxy-D-mannose]
- closure of the scratched area compared to control ([1]; 40 uM ManN or 50 ng/ml of VEGF, after 48 hours): significantly accelerated
- additivity of ManN and VEGF in scratch assay ([1]; both ManN and VEGF): additivity was observed
- hDMVECs growth ([3]; ManN by itself): stimulated
- additivity with VEGF on proliferation ([3]; hDMVECs): dose-dependent additivity with VEGF
- toxicity ([3]; hDMVECs, at 5 mM): minimal toxicity
- activation of JNK pathway (JNK and downstream c-Jun) [2]: significantly activated
- effect on α-glucosidase [4]: No effect
